Source: PMC11970527 (RSC Chemical Biology, 2025)
Like-named read-outs stand apart in the source and are kept apart here.

Legend:
phytase-4 = assay: stability against phytase-4 by 31P NMR; type: in vitro ADME, wheat; conditions: 4 mM ligand, over 32 h, 100 mM acetate buffer pH 5
[1] = Precipitation Assay with CaCl2; type: physicochemical; conditions: 4 mM ligand, pH 7.4, 100 mM tris
AvrA [2] = molecular target: T1, AvrA (Salmonella enterica subsp. enterica serovar Typhimurium, UniProt E8XKZ3); assay: isothermal calorimetry; type: binding
T1 sequence (E8XKZ3 1-301): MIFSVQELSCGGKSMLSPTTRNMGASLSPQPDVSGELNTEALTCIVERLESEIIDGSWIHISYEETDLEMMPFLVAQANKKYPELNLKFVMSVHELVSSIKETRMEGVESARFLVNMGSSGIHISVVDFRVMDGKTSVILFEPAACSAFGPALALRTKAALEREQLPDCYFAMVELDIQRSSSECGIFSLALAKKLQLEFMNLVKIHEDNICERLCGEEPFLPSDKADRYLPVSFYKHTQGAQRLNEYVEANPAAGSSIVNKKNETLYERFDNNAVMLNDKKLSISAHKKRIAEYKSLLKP

TcdB CPD = TcdB CPD (Clostridioides difficile, UniProt P18177); assay: isothermal calorimetry; type: binding
VopA = assay: differential scanning fluorimetry; type: binding, Vibrio parahaemolyticus; conditions: DSF, nonlinear curve fit, n = 5
AvrA [3] = molecular target: T1, AvrA; conditions: read-out: Kd previously described; cited from earlier work
[4] = pH 7.4; cited from earlier work

Sequence of TcdB CPD (P18177 543-799 limits assumed): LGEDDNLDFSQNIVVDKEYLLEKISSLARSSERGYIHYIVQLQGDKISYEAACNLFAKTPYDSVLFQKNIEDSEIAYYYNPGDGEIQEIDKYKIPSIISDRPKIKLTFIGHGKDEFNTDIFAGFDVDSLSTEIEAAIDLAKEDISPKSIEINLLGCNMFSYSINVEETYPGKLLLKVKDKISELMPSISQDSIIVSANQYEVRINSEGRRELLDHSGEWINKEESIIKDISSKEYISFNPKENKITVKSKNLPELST

For `O=P(O)(O)O[C@H]1[C@H](OP(=O)(O)O)[C@@H](OP(=O)(O)O)[C@H](OP(=O)(O)O)[C@@H](OP(=O)(O)O)[C@H]1OP(=O)(O)O` [IP6, myo-inositol hexakisphosphate], the “stability in the presence of phytase-4” value (phytase-4) was “hydrolysed within the first hour”, the “CaCl2 concentration that induces precipitation (X0)” value [1] was 4 mM and the koff (AvrA [2]) was 0.00171 s⁻¹. For the same compound, the ΔH (AvrA [2]; AvrA, ITC, 20 °C, mean (SD)) was −21.09 (0.12) kcal mol^−1, the Kd (AvrA [2]; K d, AvrA, ITC, 20 °C, mean (SD)) was 139 nM and the Kd (TcdB CPD) was 1920 nM. For the same compound, the koff (TcdB CPD) was 0.0409 s⁻¹, the ΔH (TcdB CPD; TcdB CPD, ITC, 20 °C, mean (SD)) was −22.94 (0.05) kcal mol^−1 and the “Maximal ΔTM” value (VopA) was 12.4 °C. The Kd (AvrA [3]) was 5180 nM and the net charge [4] was −8.
